Key:
[1] = tested on: C57BLKS/J db/db mice; test: Glucose removal after oral glucose load (OGTT) in db/db mice, 5-week study; type: in vivo; conditions: for Glucose removal rate (% glucose decrease of control) 90 min / Glucose removal rate (% glucose decrease of control) 120 min / Glucose removal rate (% glucose decrease of control) 150 min / Glucose removal rate (% glucose decrease of control) 180 min: OGTT (1 g glucose/kg) in db/db mice after 4 weeks feed-ad-mix, biotin 8 mg/kg BW/day, phytanic acid 300 mg/kg BW/day; for Blood glucose levels during the glucose load compared to the control group: db/db mice, glucose load 1 g/kg, 90-180 min, biotin 8, phytanic acid 300 mg/kg BW/day
Method: The efficacy of the combination of biotin and phytanic acid as well as of both compounds alone on glucose removal was tested in a 5-week study in C57BLKS/J db/db mice (n=7−8/group). This model of late type 2 diabetes with severe hyperglycemia is widely used to determine the efficacy of anti-diabetic compounds.
Male db/db mice were obtained from Jackson Laboratory (Bar Harbor, Me., USA). Adult mice aged 8 weeks were used in the experiment. Mice were housed individually in plastic cages with bedding and allowed free access to standard rodent food and tap water. The animal rooms were controlled for temperature (24° C.), humidity (55%), and light (12-h light-dark cycle). The animals were randomized into four groups. Biotin and phytanic acid were administered as feed-ad-mix. Corn oil (1% of diet) served as a carrier substance for biotin and phytanic acid as well as a placebo when used alone. Group 1 received placebo, group 2 received biotin at a dose of 8 mg/kg body weight (BW)/day, group 3 received phytanic acid at a dose of 300 mg/kg BW/day, and group 4 received the combination of biotin and phytanic acid at a doses of 8 and 300 mg/kg BW/day, respectively. After 4 weeks of treatment glucose removal was assessed 90, 120, 150 and 180 minutes after an oral glucose load (1 g/kg body weight). Blood samples were obtained 90, 120, 150, 180 minutes from the tail vein for determination of blood glucose levels. Blood glucose was measured by a glucose analyzer (Glucotrend Premium, Roche Diagnostics, Rotkreuz, Switzerland). All data are expressed as means for animals in each diet group. Statistical significance of the mean differences between dietary groups was tested by one-way analysis of variance (ANOVA). If significant differences were found, the Dunnett's test for multiple comparison was used to compare each group to the control group. P values less than 0.05 were considered significant. All analyses were performed with Statistica (ver. 5.5A, StatSoft, Inc).
GRR is defined as the speed at which glucose is removed from blood and directed to the peripheral tissues. At 90, 120, 150 and 180 minutes after application of the glucose load blood glucose levels in animals treated with the combination of biotin and phytanic acid decreased to a greater extent than excepted by the decrease due to monotherapy with biotin or phytanic acid. […] To evaluate the GRR the glucose levels were expressed as the percent change of glucose levels for each group compared to the control group. The expected GRR is defined as the sum of the GRR exerted by biotin and by phytanic acid when used as a monotherapy.

[2] = tested on: rat primary hepatocytes; test: Glucose uptake in rat primary hepatocytes; type: cell-based; conditions: about 10 to about 100 μM
Text: (§1) Therefore, intake of phytanic acid helps to improve insulin sensitivity and may act as a preventative measure against type 2 diabetes and Syndrome X through activation of PPARs and RXR.

[3] = tested on: pre-adipocyte cells; test: Differentiation of pre-adipocyte cells into mature adipocytes; type: cell-based; conditions: compared to the specific PPAR-γ agonist ciglitazone
Text: as §1

[4] = tested on: catalytic subunit of glucose-6-phosphatase; test: Affymetrix GeneChip expression of glucose-6-phosphatase catalytic subunit in H-4-II-E rat liver cells; type: cell-based; conditions: H-4-II-E cells, 24 h; 50 μM EGCG, 1 μM biotin, 50 μM cysteamin; Affymetrix Id 1370725_a_at; triplicate
Method: The Affymetrix GeneChip® high-density oligonucleotide microarray approach was chosen to determine the global gene expression in H-4-II-E rat liver cells.
H-4-II-E rat liver cells were obtained from the American Type Culture Collection (ATCC) and cultured in Medium 199 (Invitrogen) Basel, Switzerland) supplemented with 10% fetal calf serum in a humidified 5% CO2 atmosphere at 37° C. Cells were regularly passaged at subconfluence and used at low passage numbers. For the final assays, cells were trypsinized, seeded at a density of 1×10^6 cells/well in 6-well cell culture plates and maintained in Medium 199 & 0.1% BSA (Invitrogen) for another 6 h before compounds were applied. EGCG was applied in DMSO; cysteamin was first solved in 1M HCl and then applied to the stimulation medium, biotin was directly dissolved into the medium. After 24 h treatment, total RNA was harvested.
A total number of 24 samples were prepared following the Affymetrix GeneChip® array protocol (Affymetrix, Santa Clara, Calif., USA). Briefly, total cellular RNA was extracted by using Qiagen RNeasy Mini Kit with an on-column RNase-free DNase I digest (Qiagen, Basel, Switzerland). A T7-(T)24 primer (5′-[sequence] [sequence]-(dT)24-3′) was annealed to 10 kg of total RNA and Superscript II reverse transcriptase (400 U) was utilized to synthesize first-strand cDNA in the presence of DTT, dNTPs and 1× reaction buffer. Second strand synthesis was performed by adding E. coli DNA polymerase I (40 U), E. coli ligase (10 U) and RNase H (2 U) in a final reaction containing 1× second strand buffer in the presence of dNTPs. Finally strands were blunted using T4 DNA polymerase (10 U) (Superscript™ Microarray Customized Kit, Invitrogen, Basel, CH). cDNA was purified by phenol/chloroform extraction and subsequently in vitro transcription was carried out for 3 h using T7 RNA polymerase (Megascript™ T7 Kit, Ambion, Tex., USA), incorporating bio-16-UTPs and bio-11-CTPs (Roche Molecular Biochemicals, Penzberg, Germany). […]

[5] = tested on: diabetic KK mice (NIDDM model); test: Oral glucose tolerance in diabetic KK mice; type: in vivo; conditions: biotin orally (2-16 mg/day) or parentally (0.1 mg/day)
Text: (§2) Biotin: Biotin supplementation enhances hepatic glucose clearance which results in a decrease of circulating glucose concentration and induces decrease in the hepatic PEPCK activity. PEPCK is a rate-limiting cytosolic enzyme that catalyses the first committed step of hepatic gluconeogenesis. Decrease of hepatic PEPCK activity results in a decrease in liver glucose output.

[6] = tested on: streptozotocin-diabetic rats (IDDM); test: Oral glucose tolerance in streptozotocin-diabetic rats; type: in vivo; conditions: biotin orally (2-16 mg/day) or parentally (0.1 mg/day)
Text: as §2

[7] = tested on: pre-diabetic Otsuka Long-Evans Tokushima fatty (OLETF) rats (NIDDM); test: Oral glucose tolerance in pre-diabetic OLETF rats; type: in vivo; conditions: biotin orally (2-16 mg/day) or parentally (0.1 mg/day)
Text: as §2

[8] = tested on: type 1 and type 2 diabetic patients; test: Preliminary human studies, fasting blood glucose after biotin supplementation; type: in vivo
Text: as §2

| SMILES | Glucose removal rate (% glucose decrease of control) 90 min [1] [%] | Glucose removal rate (% glucose decrease of control) 120 min [1] [%] | Glucose removal rate (% glucose decrease of control) 150 min [1] [%] | Glucose removal rate (% glucose decrease of control) 180 min [1] [%] | Blood glucose levels during the glucose load compared to the control group [1] | Uptake of glucose [2] | Effects on differentiation of pre-adipocyte cells into mature adipocytes [3] | MeanAvgDiff (Mean Relative Expression) of glucose-6-phosphatase catalytic subunit [4] | Oral glucose tolerance [5] | Oral glucose tolerance [6] | Oral glucose tolerance [7] | Fasting blood glucose levels [8] |
| --- | --- | --- | --- | --- | --- | --- | --- | --- | --- | --- | --- | --- |
| CC(C)CCCC(C)CCCC(C)CCCC(C)CC(=O)O (stereo not shown) [Phytanic acid, 3,7,11,15-tetramethylhexadecanoic acid] | 9.7 | 12.5 | 14.6 | 15.2 | Neither biotin nor phytanic acid caused a significant decrease | enhances uptake of glucose | only minor effects | – | – | – | – | – |
| NCCS [Cysteamin, cysteamine] | – | – | – | – | – | – | – | 447.42 | – | – | – | – |
| O=C(O)CCCC[C@@H]1SC[C@@H]2NC(=O)N[C@@H]21 [Biotin] | 11.6 | 10.2 | 15.3 | 15.0 | Neither biotin nor phytanic acid caused a significant decrease | – | – | 516.66 | improved oral glucose tolerance | improved oral glucose tolerance | improved oral glucose tolerance | decreased |
| O=C(O[C@@H]1Cc2c(O)cc(O)cc2O[C@@H]1c1cc(O)c(O)c(O)c1)c1cc(O)c(O)c(O)c1 [EGCG, Epigallocatechin gallate] | – | – | – | – | – | – | – | 484.8 | – | – | – | – |
